# Data: patent US20250387388A1, “COMPOUND AS TRK INHIBITOR AND/OR RET INHIBITOR AND USE THEREOF” (Medinno Pharmaceutical Technology (Zhuhai) Co., Ltd., priority 2022, published 2025)
# Legend:
# [1] = tested on: allergic rhinitis model in mice; assay: Allergic rhinitis model in mice (OVA); assay type: in vivo, BALB/C mice
# Protocol: 42-49 day-old BALB/C mice (Manufacturer: Liaoning Changsheng Biotechnology Co., Ltd., License Number: SCXK(therapeutic)2015-0001), both male and female, were reared under conventional diet, at a temperature of 20 to 26° C., and a humidity of 40% to 70%. Animal grouping and modeling: • 1. Blank control group (no treatment) • 2. Allergic rhinitis group (vehicle treatment: saline containing 0.2% Tween 80) • 3. Allergic rhinitis+compound MDI-1233: 1 mg/kg • 4. Allergic rhinitis+compound MDI-1233: 3 mg/kg • 5. Allergic rhinitis+compound MDI-1233: 10 mg/kg • 6. Allergic rhinitis+compound MDI-1228: 3 mg/kg • 7. Allergic rhinitis+compound MDI-1288: 3 mg/kg • 8. Allergic rhinitis+positive control group (Fluticasone propionate, GlaxoSmithKline, E88D
# The preparation of an AR model in mice involved sensitizing and challenging BALB/c mice with ovalbumin (OVA) to simulate an acute symptoms caused by natural exposure to an allergen. The experimental animals were weighed and separated by gender. Sensitization was performed on days 1, 5, 9, and 12. From day 13, a daily challenge was carried out for 7 consecutive days. After the last challenge, behavior of the mice was observed and scored. The sensitization method involved intraperitoneal injection of an OVA (Sigma, A5503-1G) suspension in 50 μg/ml in which the OVA suspension was prepared by dissolving 500 μg of ovalbumin and 50 mg of AL(OH)3 (CAS 21645-51-2) into 10 ml of normal saline, pH 7.4, with 200 μl injected per mouse. […] On day 12, a single nasal challenge with 10% OVA was performed (PBS was used for the control group). Scoring was conducted according to the table below, using a superposition method to calculate the total score. A total score greater than 5 was considered as successful. Subsequent experiments were conducted after the modeling was deemed successful.
# From day 13, compound administration and challenge were conducted. The compound administration method involved calculating the nasal drops volume according to the mouse's body weight and group requirements, and dissolving the compounds MDI-1233, MDI-1228, MDI-1288 into normal saline containing 0.2% Tween 80 at specific concentrations. The administration was given 30 minutes before the challenge, twice a day. The positive control treatment involved administering nasal drop once (10 μl per side) 30 minutes before OVA nasal stimulation, twice a day. Thirty minutes after the second drug administration, a 10% OVA challenge was conducted, and the amount of nasal discharge, sneezing, and nose scratching were observed and recorded within 30 minutes after each challenge and then scored. The control group was treated with normal saline nasal drops.
# After the rhinitis modeling was completed and the scores were stable, mice of each group were anesthetized and sacrificed after a 20-day scoring. Samples were collected, and peripheral serum was obtained by collecting whole blood, and standing it at room temperature for 1 hour and then centrifuging it to collect the supernatant for ELISA detection; nasal mucosa was taken for HE staining (fixed with 10% formalin); and the supernatant of nasal lavage fluid was taken for ELISA detection.
# (1) HE Staining: The tissue was rinsed with running water for several hours, dehydrated through a series of ethanol solutions (70%, 80%, 90%), and then treated with a mixture of pure alcohol and xylene for 15 minutes, followed by xylene I for 15 minutes and xylene I1 for 15 minutes (until transparent). The tissue was then placed in a mixture of xylene and paraffin at a volume ratio of 1:1 for 15 minutes, followed by immersion with paraffin I and paraffin II each for 50-60 minutes. The tissue was embedded in paraffin and sectioned, and the sections were spreaded, dried, dewaxed and hydrated in distilled water. […]
# [2] = tested on: ovalbumin-induced asthma model in mice; assay: Ovalbumin-induced asthma model in mice; assay type: in vivo, Balb/c mice; details: nasal administration BID 5 days: MDI-1228 3 mg/kg, MDI-1288 3 mg/kg, MDI-1233 1, 3, 10 mg/kg
# Protocol: After 7 days of acclimatization, animals were randomly grouped based on their body weight. The experiment was divided into 8 groups, with 8 mice in each group, as detailed in the table below.
# • Preparation of Immunogen: Weigh an appropriate amount of OVA, to which an appropriate amount of PBS was added, to achieve a final concentration of 0.1 mg/ml. Then, an equal volume of aluminum adjuvant was added, and the resulting mixture was mixed well, and stored at 4° C., which was prepared before use. • Preparation of Sensitizer (5% OVA): Weigh an appropriate amount of OVA, to which an appropriate amount of PBS was added, to achieve a final concentration of 5%. The resulting mixture was mixed well, and store it at 4° C. for later use, which was prepared before use. • Preparation of Vehicle: Add 200 μl of Tween 80 to 100 ml of saline, and mix it well. […] Mix it well, and store it at 4° C. for later use. […] Mix it well, and store it at 4° C. for later use. […] Mix it well, and store it at 4° C. for later use. The solution was prepared once every three days.
# • Immunization: On days 0, 7, 14, and 21, 200 μl of PBS was injected intraperitoneally for the first group, and 200 μl of (10 μg) OVA/aluminum adjuvant emulsion was injected intraperitoneally for groups 2-8. • Sensitization: From days 28 to 32, the first group of animals was exposed to nebulized PBS in a nebulization box for 20 minutes, and the groups 2-8 were exposed to nebulized 5% OVA in a nebulization box for 20 minutes. And then, they were removed. The sensitization was conducted at 12:30 PM daily. • Administration: The medicine was administrated twice a day at 9 AM and 5 PM via nasal drops. Dexamethasone (Dex) was administered by gavage once a day at 9 AM.
# Serum IgE: Blood was collected from the orbits of animals after carbon dioxide euthanasia, and plasma was separated and stored at −40 degrees for plasma IgE detection.
# Bronchoalveolar Lavage Fluid (BALF) Cell Count: An appropriate amount of foetal bovine serum was weighted and dissolved in PBS to a final concentration of 1%. After orbital blood collection, the trachea was exposed, and a 1 ml syringe needle was replaced with a mouse gavage needle. 0.8 ml of the lavage fluid was aspirated from the syringe and the lungs were lavaged three times. The lavage fluids were collected, and centrifuged at 1000 rpm for 10 minutes, and the supernatant was collected and stored at −40 degrees Celsius. Cells were resuspended with 1 ml of PBS and counted. 100 ul of centrifuged smear was taken and stained with Diff quick and the number of eosinophils, basophils, lymphocytes and macrophages were recorded.
# Bronchoalveolar Lavage Fluid IL-5: Bronchoalveolar lavage fluid was collected to detect IL-5.
# Pathological scoring criteria were: • A) 0 points: No lymphocyte infiltration; • B) 1 point: Trace lymphocyte infiltration; • C) 2 points: Mild lymphocyte infiltration; • D) 3 points: Moderate lymphocyte infiltration; • E) 4 points: Severe lymphocyte infiltration; • After scoring, the results were calculated and analyzed.
# TRKB = TRKB (Homo sapiens (Human), UniProt Q16620); assay: Inhibitory activity on TRKB (ADP-Glo Kinase Assay); details: read-out: TRKB IC50; ATP 5 μM
# RET = RET (Homo sapiens (Human), UniProt P07949); assay: Inhibitory activity on RET kinase (HTRF KinEASE-TK); assay type: biochemical; details: ATP 16 μM
# Description: 3) Formulate 2.5× kinase with 1× kinase reaction buffer.
# TRKC = TRKC (Homo sapiens (Human), UniProt Q16288); assay: Inhibitory activity on TRKC (ADP-Glo Kinase Assay); details: read-out: TRKC IC50; ATP 5 μM
# TRKA [3] = target: T1, TRKA (Homo sapiens (Human), UniProt P04629); assay: Inhibitory activity on TRKA (ADP-Glo Kinase Assay); details: read-out: TRKA IC50; ATP 5 μM
# adipocytes = assay: Lipolysis in vitro in adipocytes; assay type: cell-based, C57BL/6 mouse
# Protocol: Newly extracted neonatal C57BL/6 mouse skin fibroblasts (specific operational steps can be found in the literature: Cell Reports (2023)/doi: 10.1016/j.celrep.2023.112647) were plated and cultured in petri dishes until the cell density reached the highest and contact inhibition. Differentiation medium (DMEM+10% FBS+1× antibiotic; specific formula can be found in the literature: Cell Reports (2023)/doi: 10.1016/j.celrep.2023.112647) was then added to induce the generation of new adipocytes. […] The control group received an equal volume of DMSO. The transformation of adipocytes was observed using a Leica inverted phase contrast microscope.
# [4] = tested on: atopic dermatitis/eczema in mice; assay: Atopic dermatitis/eczema model in mice (dust mite extract + SEB); assay type: in vivo; details: for Number of Scratch Incidents (±SE) / Scratch Duration (±SE) / Skin Erythema, Hemorrhage, Eruption, and Desquamation (Lesion Scoring) (Mean ± SE): Tofacitinib 10 mg/kg
# TRKA [5] = target: T1, TRKA; details: reported; cited from earlier work
# JAK3 = JAK3 (Homo sapiens (Human), UniProt P52333); details: reported; cited from earlier work
# [6] = vs. vehicle (model) group, dexamethasone 1 mg/kg gavage QD
# T1 sequence (P04629 33-796 limits assumed): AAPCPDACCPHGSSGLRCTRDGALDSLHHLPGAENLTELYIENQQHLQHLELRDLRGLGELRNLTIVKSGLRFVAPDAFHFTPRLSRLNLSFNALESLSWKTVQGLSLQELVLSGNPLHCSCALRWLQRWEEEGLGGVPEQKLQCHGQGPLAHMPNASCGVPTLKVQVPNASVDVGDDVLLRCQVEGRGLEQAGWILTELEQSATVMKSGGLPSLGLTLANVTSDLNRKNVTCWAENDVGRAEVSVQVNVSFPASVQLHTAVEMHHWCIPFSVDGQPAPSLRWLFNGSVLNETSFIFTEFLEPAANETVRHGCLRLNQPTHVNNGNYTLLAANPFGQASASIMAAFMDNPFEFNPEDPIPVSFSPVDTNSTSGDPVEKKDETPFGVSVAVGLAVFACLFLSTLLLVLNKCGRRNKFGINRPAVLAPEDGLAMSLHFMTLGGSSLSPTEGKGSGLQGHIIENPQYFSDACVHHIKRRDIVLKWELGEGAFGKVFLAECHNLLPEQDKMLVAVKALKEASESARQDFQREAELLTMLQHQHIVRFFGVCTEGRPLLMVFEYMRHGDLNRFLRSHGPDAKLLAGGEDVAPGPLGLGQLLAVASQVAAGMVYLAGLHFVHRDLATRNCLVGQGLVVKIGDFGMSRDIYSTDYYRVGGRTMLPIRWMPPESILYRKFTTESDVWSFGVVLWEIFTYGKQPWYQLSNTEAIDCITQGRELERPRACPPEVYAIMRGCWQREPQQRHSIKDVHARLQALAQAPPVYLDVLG
# RET, sequence (P07949 29-1114): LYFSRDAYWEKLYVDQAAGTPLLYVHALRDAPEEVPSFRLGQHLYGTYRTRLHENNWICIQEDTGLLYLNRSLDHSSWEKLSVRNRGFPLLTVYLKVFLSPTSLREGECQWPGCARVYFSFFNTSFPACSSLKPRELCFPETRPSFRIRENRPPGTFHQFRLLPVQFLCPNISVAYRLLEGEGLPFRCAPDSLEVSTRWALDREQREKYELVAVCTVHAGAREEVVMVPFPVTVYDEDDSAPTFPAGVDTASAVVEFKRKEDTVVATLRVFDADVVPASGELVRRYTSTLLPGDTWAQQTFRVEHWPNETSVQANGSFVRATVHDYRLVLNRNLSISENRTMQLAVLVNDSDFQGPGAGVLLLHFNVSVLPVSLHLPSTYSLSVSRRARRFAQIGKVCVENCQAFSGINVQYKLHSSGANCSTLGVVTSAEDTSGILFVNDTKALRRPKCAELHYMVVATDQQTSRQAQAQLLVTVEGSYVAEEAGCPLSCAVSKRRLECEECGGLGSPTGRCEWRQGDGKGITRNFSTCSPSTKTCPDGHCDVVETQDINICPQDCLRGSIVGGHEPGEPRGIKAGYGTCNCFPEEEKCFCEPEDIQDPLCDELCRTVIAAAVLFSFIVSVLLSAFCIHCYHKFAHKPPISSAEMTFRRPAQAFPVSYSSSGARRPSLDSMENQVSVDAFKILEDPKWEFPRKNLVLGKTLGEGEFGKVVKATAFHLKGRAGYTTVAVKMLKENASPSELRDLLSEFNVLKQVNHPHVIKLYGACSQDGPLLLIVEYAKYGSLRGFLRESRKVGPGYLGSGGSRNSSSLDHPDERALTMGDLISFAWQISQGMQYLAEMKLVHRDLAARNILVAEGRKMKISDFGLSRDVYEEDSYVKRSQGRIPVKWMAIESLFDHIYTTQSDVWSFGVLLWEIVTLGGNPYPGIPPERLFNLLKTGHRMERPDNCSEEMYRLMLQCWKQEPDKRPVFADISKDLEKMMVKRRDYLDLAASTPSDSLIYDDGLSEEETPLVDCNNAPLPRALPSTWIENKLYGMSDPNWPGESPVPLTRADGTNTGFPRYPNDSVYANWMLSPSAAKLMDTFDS
# TRKC, sequence (Q16288 32-839): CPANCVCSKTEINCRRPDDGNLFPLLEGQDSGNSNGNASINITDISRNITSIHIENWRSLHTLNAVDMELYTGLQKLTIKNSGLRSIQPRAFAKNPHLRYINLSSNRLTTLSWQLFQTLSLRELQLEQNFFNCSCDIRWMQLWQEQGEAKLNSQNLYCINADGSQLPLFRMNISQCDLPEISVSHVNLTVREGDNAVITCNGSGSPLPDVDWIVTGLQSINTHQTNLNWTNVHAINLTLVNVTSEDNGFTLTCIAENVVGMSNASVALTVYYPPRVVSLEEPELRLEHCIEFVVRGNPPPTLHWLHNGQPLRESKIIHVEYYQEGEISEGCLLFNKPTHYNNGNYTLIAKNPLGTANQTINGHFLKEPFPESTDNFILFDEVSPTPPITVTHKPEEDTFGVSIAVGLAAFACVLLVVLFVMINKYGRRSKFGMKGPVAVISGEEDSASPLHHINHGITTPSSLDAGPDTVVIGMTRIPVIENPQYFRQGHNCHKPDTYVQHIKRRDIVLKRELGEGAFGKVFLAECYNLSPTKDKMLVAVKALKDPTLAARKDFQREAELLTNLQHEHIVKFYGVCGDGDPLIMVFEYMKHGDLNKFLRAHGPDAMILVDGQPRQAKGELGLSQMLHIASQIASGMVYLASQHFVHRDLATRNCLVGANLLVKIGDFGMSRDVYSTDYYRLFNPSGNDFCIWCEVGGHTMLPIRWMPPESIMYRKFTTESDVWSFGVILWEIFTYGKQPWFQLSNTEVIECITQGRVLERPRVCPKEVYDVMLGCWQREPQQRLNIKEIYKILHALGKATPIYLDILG
# TRKB, sequence (Q16620 32-822): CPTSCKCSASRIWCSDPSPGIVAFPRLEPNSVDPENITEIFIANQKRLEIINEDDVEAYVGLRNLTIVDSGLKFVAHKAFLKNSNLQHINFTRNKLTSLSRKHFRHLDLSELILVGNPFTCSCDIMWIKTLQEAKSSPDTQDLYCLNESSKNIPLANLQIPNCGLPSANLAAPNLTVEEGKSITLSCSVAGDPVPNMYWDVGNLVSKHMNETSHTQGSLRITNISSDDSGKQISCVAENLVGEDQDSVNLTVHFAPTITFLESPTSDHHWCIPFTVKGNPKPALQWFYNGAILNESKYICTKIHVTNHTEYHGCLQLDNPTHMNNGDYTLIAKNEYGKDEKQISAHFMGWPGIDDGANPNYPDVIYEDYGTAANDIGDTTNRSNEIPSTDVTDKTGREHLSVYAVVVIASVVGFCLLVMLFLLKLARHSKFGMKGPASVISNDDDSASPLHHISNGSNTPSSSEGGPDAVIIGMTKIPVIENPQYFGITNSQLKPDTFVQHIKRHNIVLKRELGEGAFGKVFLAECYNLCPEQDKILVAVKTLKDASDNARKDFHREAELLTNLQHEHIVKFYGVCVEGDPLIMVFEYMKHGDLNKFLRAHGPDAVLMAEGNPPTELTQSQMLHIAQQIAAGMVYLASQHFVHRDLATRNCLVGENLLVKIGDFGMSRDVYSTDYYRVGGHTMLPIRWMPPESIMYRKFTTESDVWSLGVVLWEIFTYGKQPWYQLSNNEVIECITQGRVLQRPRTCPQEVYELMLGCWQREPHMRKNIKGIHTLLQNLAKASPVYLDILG
# JAK3, sequence (P52333 whole entry, species assumed): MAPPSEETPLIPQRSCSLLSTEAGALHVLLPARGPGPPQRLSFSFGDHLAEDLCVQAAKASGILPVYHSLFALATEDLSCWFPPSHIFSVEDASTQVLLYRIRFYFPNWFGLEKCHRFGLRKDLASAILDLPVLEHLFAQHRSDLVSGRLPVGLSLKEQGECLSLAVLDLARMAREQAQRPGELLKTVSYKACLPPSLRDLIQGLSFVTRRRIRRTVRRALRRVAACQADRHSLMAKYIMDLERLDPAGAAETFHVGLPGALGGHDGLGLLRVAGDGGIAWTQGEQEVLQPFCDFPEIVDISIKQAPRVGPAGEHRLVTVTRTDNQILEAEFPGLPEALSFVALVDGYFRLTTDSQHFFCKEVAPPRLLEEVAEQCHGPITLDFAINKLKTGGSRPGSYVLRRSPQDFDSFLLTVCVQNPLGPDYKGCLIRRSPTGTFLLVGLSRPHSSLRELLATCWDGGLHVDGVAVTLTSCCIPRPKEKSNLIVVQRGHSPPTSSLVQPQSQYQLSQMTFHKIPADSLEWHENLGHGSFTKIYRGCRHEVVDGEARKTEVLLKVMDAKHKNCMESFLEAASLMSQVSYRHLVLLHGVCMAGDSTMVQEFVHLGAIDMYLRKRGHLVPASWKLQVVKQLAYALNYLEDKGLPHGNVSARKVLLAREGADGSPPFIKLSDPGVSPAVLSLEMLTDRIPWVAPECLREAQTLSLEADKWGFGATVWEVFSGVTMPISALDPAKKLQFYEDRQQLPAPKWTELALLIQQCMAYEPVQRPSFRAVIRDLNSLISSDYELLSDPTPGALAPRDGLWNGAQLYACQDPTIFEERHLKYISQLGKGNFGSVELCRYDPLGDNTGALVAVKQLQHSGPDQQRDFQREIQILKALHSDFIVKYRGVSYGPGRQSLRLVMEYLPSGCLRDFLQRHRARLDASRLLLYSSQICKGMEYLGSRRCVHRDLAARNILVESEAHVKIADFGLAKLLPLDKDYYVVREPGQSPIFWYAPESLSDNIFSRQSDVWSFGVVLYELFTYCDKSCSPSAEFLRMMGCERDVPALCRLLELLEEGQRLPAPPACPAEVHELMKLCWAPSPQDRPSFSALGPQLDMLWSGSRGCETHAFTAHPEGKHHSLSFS
compound,measurement,setting,value
"CCc1cc(O)c(F)cc1-c1ccc2c(-c3nc4c([nH]3)CN(C(=O)C3CC3)C4)n[nH]c2c1 [MDI-1233, cyclopropyl (2-(6-(2-ethyl-5-fluoro-4-hydroxyphenyl)-1H-indazol-3-yl)pyrrolo[3,4-d]imidazol-5(1H,4H,6H)-yl)ketone]",Nasal mucosa pathology (HE staining),[1]; MDI-1233 1 mg/kg and 3 mg/kg nasal drops twice a day,"still accompanied by bleeding, inflammatory cell infiltration, cilia shedding"
same,Nasal mucosa pathology (HE staining),[1]; MDI-1233 10 mg/kg nasal drops twice a day,the nasal mucosal cilia repair effect was significant
same,Rhinitis behavioral scoring,"[1]; nasal drops twice a day, 7-day treatment, MDI-1233 10 mg/kg, MDI-1228 3 mg/kg, MDI-1288 3 mg/kg, fluticasone propionate positive control",demonstrated inhibitory effects on the male mouse rhinitis model
same,Therapeutic effect on the asthma animal model (lung tissue pathological scoring),[2],good therapeutic effect
same,Bronchoalveolar lavage fluid IL-5 expression level,[2]; [6],could reduce IL-5 expression in all three dosage
same,Inflammatory cell count in bronchoalveolar lavage fluid,[2]; [6],could reduce the Inflammatory Cell Count in all three dosage
same,Lung tissue inflammatory cell infiltration (HE pathology),[2]; [6],could reduce the lung tissue inflammatory cell infiltration in all three dosage
same,Serum IgE expression level,[2]; [6],could reduce IgE expression in all three dosage
same,IC50,TRKB,4.16 nM
same,IC50,RET,4.21 nM
same,IC50,TRKC,5.91 nM
same,IC50,TRKA [3],12.2 nM
"C[C@@H]1CCN(C(=O)CC#N)C[C@@H]1N(C)c1ncnc2[nH]ccc12 [Tofacitinib, reference compound]",Lipolysis of differentiated mature adipocytes (phase contrast images),adipocytes; 5 μM,does not promote lipolysis
same,Adipocyte lipolysis in vitro,adipocytes; summary statement,no similar effect
same,Number of Scratch Incidents (±SE),[4]; Day 1,17.75 ± 0.86
same,Scratch Duration (±SE),[4]; Day 1,278.25 ± 50.09
same,"Skin Erythema, Hemorrhage, Eruption, and Desquamation (Lesion Scoring) (Mean ± SE)",[4]; Day 1,4.38 ± 0.46
same,"Skin Erythema, Hemorrhage, Eruption, and Desquamation (Lesion Scoring) (Mean ± SE)",[4]; Day 4,2.63 ± 0.26
same,"Skin Erythema, Hemorrhage, Eruption, and Desquamation (Lesion Scoring) (Mean ± SE)",[4]; Day 7,2.00 ± 0.33
same,Number of Scratch Incidents (±SE),[4]; Day 14,26.7 ± 1.96
same,Scratch Duration (±SE),[4]; Day 14,217.5 ± 47.85
same,"Skin Erythema, Hemorrhage, Eruption, and Desquamation (Lesion Scoring) (Mean ± SE)",[4]; Day 14,1.50 ± 0.19
same,Behavioral analysis (scratch incidents and scratch duration),"[4]; MDI-1228 high-dose (3% gel), tofacitinib 10 mg/kg",did not show significant effects in the behavioral analysis
Pegcantratinib,Inhibition of TRKA,TRKA [5],capable of inhibiting
same,Inhibition of JAK3,JAK3,capable of inhibiting
